Results reported in patent US20220249441A1, “Homodimeric Tobramycin Adjuvant Repurposes Novobiocin as an Effective Antibacterial Agent Against Gram-Negative Bacteria” (priority 2019, published 2022).
Values after ≈ are worked out from the molar mass of the structure shown. One block for each compound: values may come before it.

Key:
[1] = system: P. aeruginosa; experiment: Checkerboard assay (antibiotic + adjuvant combination MIC); format: cell-based, Pseudomonas aeruginosa
Experimental: (§1) Antimicrobial Susceptibility Assay. The in vitro antimicrobial activity of all compounds/antibiotics against a panel of bacteria was evaluated by microbroth dilution method in accordance with the Clinical and Laboratory Standards Institute (CLSI) guidelines (using ATCC strains as quality control strains) (54). Overnight grown bacterial cultures were diluted in saline to achieve a 0.5 McFarland turbidity, followed by 1:50 dilution in Mueller-Hinton broth (MHB) for inoculation to a final concentration of approximately 5×10^5 CFU/mL. […] The lowest concentration that prevented the visible growth of bacteria was defined as the MIC for each antimicrobial agent. The broth with or without bacterial cells was used as positive or negative control, respectively.
Checkerboard Assay. Combination studies with different antibiotics were performed in 96-well plates as previously described (19). Briefly, the antibiotic of interest was serially diluted in MHB along the abscissa while the adjuvant (tobramycin homodimer) was serially diluted in MHB along the ordinate. This creates a 10×7 matrices wherein each well consists of a combination of different antibiotic and adjuvant concentrations. Overnight grown bacterial cultures were diluted in saline to achieve a 0.5 McFarland turbidity, followed by 1:50 dilution in Mueller-Hinton broth (MHB) for inoculation to a final concentration of approximately 5×10^5 CFU/mL. […] MIC was recorded as wells with the lowest concentration of drugs with no bacterial growth. The fractional inhibitory concentration (FIC) for each antibiotic was calculated by dividing the MIC of the antibiotic in the presence of adjuvant by the MIC of the antibiotic alone. Similarly, the FIC of adjuvant was calculated by dividing the MIC of the adjuvant in the presence of antibiotic by the MIC of the adjuvant alone. FIC index is the sum of both FICs. FIC indices of ≤0.5 were deemed synergistic; >0.5-4, no interaction; and >4, antagonistic.

[2] = system: A. baumannii ATCC 17978 and resistant mutants; experiment: microbe, parasite or virus in culture; format: cell-based, Acinetobacter baumannii; conditions: Acinetobacter baumannii
Experimental: as §1
Development of Resistance Study. […] Tobramycin and colistin were included as controls. At 24-hour intervals, the cultures were assessed for growth. […] This serial passaging was repeated for 8 days.

- MIC Alone ([1]; P. aeruginosa PAO1, β-lactam antibiotic alone): 4 µg/mL
- MIC of ATM alone ([1]; PA 259-96918): 32 µg/mL
- MIC of ATM alone ([1]; PA 260-97103): 64 µg/mL
- MIC of ATM alone ([1]; PA 262-101856): 32 µg/mL
- MIC of ATM alone ([1]; PA 264-104354): 32 µg/mL
- MIC of ATM alone ([1]; PA 86052): 64 µg/mL
- MIC of ATM alone ([1]; PA 88949): 32 µg/mL
- MIC of ATM alone ([1]; PA 91433): 16 µg/mL
- MIC of ATM alone ([1]; PA 100036): 16 µg/mL
- MIC of ATM alone ([1]; PA 101243): 32 µg/mL
- MIC of ATM alone ([1]; PA 101885): 16 µg/mL
- MIC of ATM alone ([1]; PA 107092): 64 µg/mL
- MIC of ATM alone ([1]; PA 108590): 32 µg/mL
- MIC of ATM alone ([1]; PA 109084): 64 µg/mL
- MIC of ATM alone ([1]; PA 114228): 32 µg/mL
- MIC of ATM alone ([1]; PAO1): 4 µg/mL
Structure (SMILES): C[C@H]1[C@H](NC(=O)/C(=N\OC(C)(C)C(=O)O)c2csc(N)n2)C(=O)N1S(=O)(=O)O [Aztreonam, reference compound]

Structure (SMILES): O=C(N[C@H](CO)[C@H](O)c1ccc([N+](=O)[O-])cc1)C(Cl)Cl [Chloramphenicol]
- MIC ([2]; ATCC17978, 18 h, Mutant C (seven serial passages, sub-MICs novobiocin + 7.1 μM compound 1)): 64 µg/mL
- MIC ([2]; ATCC17978, Mutant A (seven serial passages, sub-MICs novobiocin)): 32 µg/mL (≈ 99 µM)
- MIC ([2]; ATCC17978, Mutant B (seven serial passages, sub-MICs colistin)): 8 µg/mL (≈ 24.8 µM)
- MIC ([2]; ATCC17978, Wild-type A. baumannii ATCC 17978): 64 µg/mL (≈ 198 µM)

Structure (SMILES): C#CCCCCO[C@@H]1[C@@H](O[C@H]2O[C@H](CO)[C@@H](O)[C@H](N)[C@H]2O)[C@H](N)C[C@H](N)[C@H]1O[C@H]1O[C@H](CN)[C@@H](O)C[C@H]1N.O=C(O)C(F)(F)F.O=C(O)C(F)(F)F.O=C(O)C(F)(F)F.O=C(O)C(F)(F)F.O=C(O)C(F)(F)F [Compound 4, 5-O-(Hexyne)-Tobramycin]
- potentiation of novobiocin ([1]; P. aeruginosa PAO1): did not potentiate

Structure (SMILES): [N-]=[N+]=NCCCCO[C@@H]1[C@@H](O[C@H]2O[C@H](CO)[C@@H](O)[C@H](N)[C@H]2O)[C@H](N)C[C@H](N)[C@H]1O[C@H]1O[C@H](CN)[C@@H](O)C[C@H]1N [Compound 5, 5-O-(4-Azidobutyl)-Tobramycin]
- potentiation of novobiocin ([1]; P. aeruginosa PAO1): did not potentiate

Structure (SMILES): CC(C)(C)OC(=O)NC[C@H]1O[C@H](O[C@H]2[C@H](OCCCCc3cn(CCCCO[C@@H]4[C@@H](O[C@H]5O[C@H](CO)[C@@H](O)[C@H](NC(=O)OC(C)(C)C)[C@H]5O)[C@H](NC(=O)OC(C)(C)C)C[C@H](NC(=O)OC(C)(C)C)[C@H]4O[C@H]4O[C@H](CNC(=O)OC(C)(C)C)[C@@H](O)C[C@H]4NC(=O)OC(C)(C)C)nn3)[C@@H](O[C@H]3O[C@H](CO)[C@@H](O)[C@H](NC(=O)OC(C)(C)C)[C@H]3O)[C@H](NC(=O)OC(C)(C)C)C[C@@H]2NC(=O)OC(C)(C)C)[C@H](NC(=O)OC(C)(C)C)C[C@@H]1O [Compound 12a]
- potentiation of novobiocin ([1]; P. aeruginosa PAO1): did not potentiate
